Assay results taken from patent publication US10744179B2, “Method for treatment of inflammatory skin disorders with inhibitors of IL-36 proteolytic processing” (THE PROVOST, FELLOWS, FOUNDATION SCHOLARS, & THE OTHER …, priority 2014, dated 2020).
No end group written: not given here. *: point of attachment. CH2Cl = ClC*

Key:
[1] = test system: IL-36α activation by psoriatic skin eluates; experiment: IL-36α activation by psoriatic skin eluates, HeLa IL-36R bioassay (IL-8 ELISA); assay type: cell-based, human; settings: FIG. 40c, IL-36α 500 pM pre-incubated 2 h at 37° with eluates ± cathepsin G inhibitor 1 (10 μM)
Procedure: (§1) Fixomull (2 cm×2 cm) adhesive tape strips were applied to a healthy or psoriatic skin, under firm pressure for 10 seconds. […] Sample eluates were stored at −80° C. Enzymatic assays and bioassays were setup using control and psoriatic eluates as described above.

[2] = test system: IL-36α activation by activated neutrophil degranulates; experiment: IL-36α activation by PMA-activated neutrophil degranulates, HeLa IL-36R bioassay (cytokine ELISA); assay type: cell-based, human; settings: FIG. 5; IL-36α pre-incubated 2 h at 37° with degranulates ± PMSF (1 mM) or Cathepsin G inhibitor 1 (10 μM); HeLa IL36R, cytokine ELISA after 24 h
[3] = test system: IL-36β activation by activated neutrophil degranulates; experiment: IL-36β activation by PMA-activated neutrophil degranulates, HeLa IL-36R bioassay (cytokine ELISA); settings: HeLa IL36R; for inhibition of the activation of IL-36β by activated neutrophil degranulates: FIG. 5, IL-36β pre-incubated 2 h at 37° with degranulates ± PMSF (1 mM) or Cathepsin G inhibitor 1 (10 μM), cytokine ELISA after 24 h; for inhibition of IL-36β activation by neutrophil degranulates (peptide panel): FIG. 6, 29, 30, degranulates pre-incubated 30 min on ice with peptide titration (20-0.625 μM), then IL36β 2 h at 37°, IL-6 ELISA after 24 h
Procedure: FIG. 29 are graphs showing Neutrophils degranulates pre-incubated for 30 min on ice in the presence or absence of a titration of peptide (20, 10, 5, 2.5, 1.25, 0.625 μM) followed by addition of IL36β for 2 h at 37°. HeLa^IL36R were stimulated for 24 h. IL-6 cytokine concentrations in culture supernatants were determined by ELISA. Note: Elast I-IV serves as negative controls for IL-36β assay.
Primary neutrophils were purified from donor human blood using the plasma-Percoll gradient method. Purity of cell preparations (>90%) was determined by Hematoxylin and Eosin staining of cytospins. To prepare degranulates, neutrophils (10^7 per treatment) were stimulated in the presence or absence of 50 nM PMA in HBSS/0.25% BSA for 1-3 h at 37° C. in a humidified atmosphere with 5% CO2. Supernatants were harvested and clarified by centrifugation. Degranulate aliquots were stored at −80°.
Reactions (40-100 μl final volume) were carried out in protease reaction buffer (50 mM Hepes, pH 7.4/75 mM NaCl/0.1% CHAPS) for 2 h at 37°.
Cytokines and chemokines were measured from cell culture supernatants using specific ELISA kits obtained from R&D systems (human IL-6, IL-8, CXCL1, MCP-1, IL-17C). Each assay was repeated a minimum of three times and all cytokine assays were carried out using triplicate samples from each culture.

[4] = test system: IL-36β activation by psoriatic skin eluates; experiment: IL-36β activation by psoriatic skin eluates, HeLa IL-36R bioassay (IL-8 ELISA); assay type: cell-based, human; settings: FIG. 40c, IL-36β 500 pM pre-incubated 2 h at 37° with eluates ± cathepsin G inhibitor 1 (10 μM)
Procedure: as §1

Compound | attenuation of IL-36α activation by psoriatic skin eluates [1] | inhibition of the activation of IL-36α by activated neutrophil degranulates [2] | inhibition of the activation of IL-36β by activated neutrophil degranulates [3] | attenuation of IL-36β activation by psoriatic skin eluates [4] | inhibition of IL-36β activation by neutrophil degranulates (peptide panel) [3]
CN(C(=O)c1cc2ccccc2cc1C(=O)C(c1cccc2ccccc12)P(=O)(O)O)C1CCN(C(=O)c2ccccc2)CC1 (stereo not drawn) [Cathepsin G Inhibitor I] | attenuated | robustly inhibited | robustly inhibited | attenuated | 
O=S(=O)(F)Cc1ccccc1 [PMSF, phenylmethanesulfonylfluoride] |  | robustly inhibited | robustly inhibited |  | 
Ala-Phe-Leu-Phe-CMK (AFLF; not fully specified; C-terminal chloromethyl ketone; N-terminal Z; printed: Ala-Phe-Leu-Phe-) [AFLF-CMK] |  |  |  |  | most potent inhibitors
FLF-CMK: Cathepsin G-inhibitory peptide Phe-Leu-Phe with chloromethyl ketone (CMK) at the C-terminus (Phe-Leu-Phe-CH2Cl) |  |  |  |  | most potent inhibitors
Glu-Pro-Phe-CMK (Glu-Pro-Phe-CH2Cl) [EPF-CMK] |  |  |  |  | most potent inhibitors
